Measured values: US20110201497A1, “Composition Comprising A Pesticide and an Alkoxylate of Iso-Heptadecylamine” (BASF SE, priority 2010, published 2011)

Key:
[1] = tested on: winter wheat; experiment: Greenhouse test, herbicidal activity of glyphosate SL with amine alkoxylate against winter wheat; type: in vivo, winter wheat (cv. Cubus); conditions: scored vs untreated control
Experimental: (§1) To carry out greenhouse tests, the winter wheats (cv. Cubus) or soybeans (cv. Oxford) were sown or potted in loamy sand at a sowing depth of 1-2 cm. As soon as the plants had reached a height of 10 to 25 cm (i.e. approx. 10 to 21 days after sowing), the spray mixtures were applied to the plants in a spray cabinet.
(§2) A concentrated formulation comprising glyphosate isoproylammonium dissolved in water and amine alkoxylate of example 2 were diluted with fully demineralized water and were applied at a water application rate of 375 l/ha ([…]). The temperatures during the experimental period, which lasted for 3 to 4 weeks, were between 18 and 35° C. During this time, the test plants received optimal irrigation, the nutrient supply being effected via the irrigation water.
(§3) The herbicidal activity was assessed by scoring the treated plants in comparison with the untreated control plants (table 1). The assessment scale goes from 0% to 100% activity. 100% activity means complete dying at least of the aerial plant parts. In contrast, 0% activity means that no differences were observed between treated and untreated plants. The results in table 1 and 2 confirm the increased activity of the active substance by addition of the amine alkoxylate.

[2] = tested on: soybean; experiment: Greenhouse test, herbicidal activity of glyphosate SL with amine alkoxylate against soybean; type: in vivo, soybean (cv. Oxford); conditions: scored vs untreated control
Experimental: as §1, §2, §3

[3] = glyphosate 140 g/ha, amine alkoxylate (where present) 300 g/ha, 375 l/ha water
[4] = glyphosate 280 g/ha, with amine alkoxylate where named

## O=C(O)CNCP(=O)(O)O [glyphosate]
[1]; [3]
  Activity [%] after 14 days: 64%
  Activity [%] after 21 days: 73%
  Activity [%] after 28 days: 73%
[1]; [4]
  Activity [%] after 14 days: 71%
  Activity [%] after 21 days: 81%
  Activity [%] after 28 days: 81%
[2]; [3]
  Activity [%] after 14 days: 29%
  Activity [%] after 21 days: 38%
  Activity [%] after 28 days: 38%
[2]; [4]
  Activity [%] after 14 days: 36%
  Activity [%] after 21 days: 40%
  Activity [%] after 28 days: 40%
